In PubChem BioAssay (NCI):
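Five compound concentrations were applied to cells in 96-well plates for 48 hours; endpoints were derived by simple linear interpolation of the resulting dose-response curve. Definition used: TGI = concentration required for complete inhibition of growth.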

Key:
Assay in all cases: DTP human tumour cell line panel, 48 h
SNB-75 CNS = test system: SNB-75 CNS
BT-549 breast = test system: BT-549 breast
RXF 393 renal = test system: RXF 393 renal
ACHN renal = test system: ACHN renal
CCRF-CEM leukemia = test system: CCRF-CEM leukemia
OVCAR-3 ovarian = test system: OVCAR-3 ovarian
MDA-N = test system: MDA-N
SW-620 colon = test system: SW-620 colon
SF-295 CNS = test system: SF-295 CNS
HCT-116 colon = test system: HCT-116 colon
COLO 205 colon = test system: COLO 205 colon
SK-OV-3 ovarian = test system: SK-OV-3 ovarian
OVCAR-8 ovarian = test system: OVCAR-8 ovarian
OVCAR-4 ovarian = test system: OVCAR-4 ovarian
PC-3 prostate = test system: PC-3 prostate
TK-10 renal = test system: TK-10 renal
HOP-62 NSCLC = test system: HOP-62 NSCLC
SF-268 CNS = test system: SF-268 CNS
MALME-3M melanoma = test system: MALME-3M melanoma
MDA-MB-435 = test system: MDA-MB-435
RPMI-8226 leukemia = test system: RPMI-8226 leukemia
MDA-MB-231 breast = test system: MDA-MB-231 breast
U251 CNS = test system: U251 CNS
MCF7 breast = test system: MCF7 breast
T-47D breast = test system: T-47D breast
HT29 colon = test system: HT29 colon
786-0 renal = test system: 786-0 renal
UACC-62 melanoma = test system: UACC-62 melanoma
OVCAR-5 ovarian = test system: OVCAR-5 ovarian
HOP-92 NSCLC = test system: HOP-92 NSCLC
CAKI-1 renal = test system: CAKI-1 renal
KM12 colon = test system: KM12 colon
NCI-H460 lung = test system: NCI-H460 lung
SK-MEL-28 melanoma = test system: SK-MEL-28 melanoma
HCT-15 colon = test system: HCT-15 colon
NCI-H23 lung = test system: NCI-H23 lung
M14 melanoma = test system: M14 melanoma
HS 578T breast = test system: HS 578T breast
DU-145 prostate = test system: DU-145 prostate
UACC-257 melanoma = test system: UACC-257 melanoma
SF-539 CNS = test system: SF-539 CNS
SN12C renal = test system: SN12C renal
SK-MEL-2 melanoma = test system: SK-MEL-2 melanoma
NCI/ADR-RES ovarian = test system: NCI/ADR-RES ovarian
A498 renal = test system: A498 renal
NCI-H522 lung = test system: NCI-H522 lung
HCC-2998 colon = test system: HCC-2998 colon
A549 NSCLC = test system: A549 NSCLC
HL-60(TB) leukemia = test system: HL-60(TB) leukemia
NCI-H226 lung = test system: NCI-H226 lung
LOX IMVI melanoma = test system: LOX IMVI melanoma
IGROV1 ovarian = test system: IGROV1 ovarian
K-562 leukemia = test system: K-562 leukemia
SNB-19 CNS = test system: SNB-19 CNS
MOLT-4 leukemia = test system: MOLT-4 leukemia
EKVX NSCLC = test system: EKVX NSCLC
UO-31 renal = test system: UO-31 renal
SR leukemia = test system: SR leukemia
SK-MEL-5 melanoma = test system: SK-MEL-5 melanoma

SMILES: O=C1c2[nH]c3ccccc3c2CCN2CCCCC12 (stereo not drawn)
- TGI (SNB-75 CNS): 73.5 µM
- TGI (BT-549 breast): 65.8 µM
- TGI (RXF 393 renal): 61.2 µM
- TGI (ACHN renal): 46 µM
- TGI (CCRF-CEM leukemia): 57.3 µM
- TGI (OVCAR-3 ovarian): 37.1 µM
- TGI (MDA-N): 39.6 µM
- TGI (SW-620 colon): 65.9 µM
- TGI (SF-295 CNS): 90.2 µM
- TGI (HCT-116 colon): 54.6 µM
- TGI (COLO 205 colon): 34.9 µM
- TGI (SK-OV-3 ovarian): > 100 µM
- TGI (OVCAR-8 ovarian): 65.9 µM
- TGI (OVCAR-4 ovarian): 96.5 µM
- TGI (PC-3 prostate): 35.7 µM
- TGI (TK-10 renal): 72.4 µM
- TGI (HOP-62 NSCLC): > 100 µM
- TGI (SF-268 CNS): 78.9 µM
- TGI (MALME-3M melanoma): 46.5 µM
- TGI (MDA-MB-435): 31 µM
- TGI (RPMI-8226 leukemia): 42.6 µM
- TGI (MDA-MB-231 breast): 41.3 µM
- TGI (U251 CNS): 38.3 µM
- TGI (MCF7 breast): > 100 µM
- TGI (T-47D breast): 74.9 µM
- TGI (HT29 colon): > 100 µM
- TGI (786-0 renal): 56.9 µM
- TGI (UACC-62 melanoma): 37 µM
- TGI (OVCAR-5 ovarian): 44.1 µM
- TGI (HOP-92 NSCLC): 41.8 µM
- TGI (CAKI-1 renal): > 100 µM
- TGI (KM12 colon): 32.4 µM
- TGI (NCI-H460 lung): > 100 µM
- TGI (SK-MEL-28 melanoma): > 100 µM
- TGI (HCT-15 colon): > 100 µM
- TGI (NCI-H23 lung): 63.7 µM
- TGI (M14 melanoma): 35.3 µM
- TGI (HS 578T breast): 71.8 µM
- TGI (DU-145 prostate): > 100 µM
- TGI (UACC-257 melanoma): 39.5 µM
- TGI (SF-539 CNS): 40.2 µM
- TGI (SN12C renal): > 100 µM
- TGI (SK-MEL-2 melanoma): 36.3 µM
- TGI (NCI/ADR-RES ovarian): 59 µM
- TGI (A498 renal): 78.3 µM
- TGI (NCI-H522 lung): 39.8 µM
- TGI (HCC-2998 colon): 33.2 µM
- TGI (A549 NSCLC): 76.3 µM
- TGI (HL-60(TB) leukemia): 13.3 µM
- TGI (NCI-H226 lung): 48.8 µM
- TGI (LOX IMVI melanoma): 44.9 µM
- TGI (IGROV1 ovarian): 56 µM
- TGI (K-562 leukemia): 95.3 µM
- TGI (SNB-19 CNS): 61.7 µM
- TGI (MOLT-4 leukemia): 56.7 µM
- TGI (EKVX NSCLC): 53.7 µM

SMILES: COc1ccc(/C=C2\Oc3cc(OC(C)=O)ccc3C2=O)cc1
- TGI (UO-31 renal): > 100 µM
- TGI (SNB-75 CNS): > 100 µM
- TGI (BT-549 breast): > 100 µM
- TGI (RXF 393 renal): > 100 µM
- TGI (ACHN renal): > 100 µM
- TGI (CCRF-CEM leukemia): > 100 µM
- TGI (OVCAR-3 ovarian): > 100 µM
- TGI (MDA-N): > 100 µM
- TGI (SW-620 colon): > 100 µM
- TGI (SF-295 CNS): > 100 µM
- TGI (HCT-116 colon): > 100 µM
- TGI (COLO 205 colon): > 100 µM
- TGI (SK-OV-3 ovarian): > 100 µM
- TGI (OVCAR-8 ovarian): > 100 µM
- TGI (OVCAR-4 ovarian): > 100 µM
- TGI (PC-3 prostate): > 100 µM
- TGI (TK-10 renal): > 100 µM
- TGI (HOP-62 NSCLC): > 100 µM
- TGI (SF-268 CNS): > 100 µM
- TGI (MDA-MB-435): > 100 µM
- TGI (RPMI-8226 leukemia): > 100 µM
- TGI (MDA-MB-231 breast): > 100 µM
- TGI (U251 CNS): > 100 µM
- TGI (MCF7 breast): > 100 µM
- TGI (T-47D breast): > 100 µM
- TGI (786-0 renal): > 100 µM
- TGI (UACC-62 melanoma): > 100 µM
- TGI (CAKI-1 renal): 86.7 µM
- TGI (KM12 colon): > 100 µM
- TGI (NCI-H460 lung): > 100 µM
- TGI (SK-MEL-28 melanoma): > 100 µM
- TGI (HCT-15 colon): > 100 µM
- TGI (NCI-H23 lung): > 100 µM
- TGI (M14 melanoma): > 100 µM
- TGI (HS 578T breast): > 100 µM
- TGI (DU-145 prostate): > 100 µM
- TGI (UACC-257 melanoma): > 100 µM
- TGI (SR leukemia): > 100 µM
- TGI (SF-539 CNS): > 100 µM
- TGI (SN12C renal): > 100 µM
- TGI (NCI/ADR-RES ovarian): > 100 µM
- TGI (NCI-H522 lung): 45.1 µM
- TGI (HCC-2998 colon): > 100 µM
- TGI (A549 NSCLC): > 100 µM
- TGI (HL-60(TB) leukemia): > 100 µM
- TGI (NCI-H226 lung): > 100 µM
- TGI (IGROV1 ovarian): > 100 µM
- TGI (K-562 leukemia): > 100 µM
- TGI (SK-MEL-5 melanoma): > 100 µM
- TGI (SNB-19 CNS): > 100 µM
- TGI (MOLT-4 leukemia): > 100 µM
- TGI (EKVX NSCLC): > 100 µM
